Experimental data taken from patent publication US7232578B2, “Pharmaceutical composition inducing cancer cell differentiation and the use for treatment and prevention of cancer thereof” (Bio Grand Co., Ltd., priority 2005, dated 2007).

What was measured:
HL-60 cells = test: Differentiation helper inducer activity (reductive index, retinoic acid-induced HL-60 differentiation, NBT+); format: cell-based; settings: for Concentration to reach 0.5 reductive index: methyltransferase inhibitors as differentiation helper inducers, HL-60, retinoic acid, 96 hours; for Concentration to reach 0.5 reductive index (effective dose of differentiation inducer reduced to 50%): MAT inhibitors as differentiation helper inducers
Description: The differentiation of cancer cells was measured by using leukemic cancer cells HL-60 to quantitate the NBT+ cells. First, HL-60 cells were subcultured at an initial cell density 1.5×10^5 cells/ml, 10 ml/flask. A set of four flasks were used as the control, wherein only retinoic acid was added as differentiation inducer, the amount of which was adjusted to induce NBT+ cells to the range of 15% to 60%. Another flask was used as the blank which was added the solution only. The total amount of methanol in which retinoic acid was dissolved should not exceed 2%, so as not to affect the differentiation of cancer cells. Each of other sets also comprises four flasks, which were added smaller amounts of retinoic acid, and a blank flask with only the solvent. Different amounts of the differentiation helper inducers were added in each set. The cell numbers in every flask were counted after incubation for 96 hours, and NBT was assayed according to the method of Example 4. Generally, the natural differentiation of the HL-60 cells, i.e. without the action of any of the additives, is usually lower than 4%. In the sets containing only differentiation helper inducer, the differentiation of cells is less than 10%. The value of NBT+ in each flask is required to subtract the value of the blank control.
The value of ED50, i.e., the amount of the differentiation inducer required when NBT+ is 50%, can be obtained by plotting the amount against NBT+. The reductive index can be calculated from the ED50 value. Reductive index=ED50 in the presence of differentiation helper inducer/ED50 with cell differentiation inducer only. The lower the reductive index, the higher the activity of the differentiation helper induced.

HL-60 cancer cells = test: Completeness of retinoic acid-induced differentiation with helper inducers (NBT test); format: cell-based; settings: 96 hours, FIG. 5
Description: Differentiation helper inducers can not only decrease the effective amount of the differentiation inducer, but also promote the completeness of differentiation. HL-60 cancer cells were subcultured at an initial cell density of 1.5×10^5 cells/ml. The culture flasks were grouped into three sets; each set includes 4-5 flasks. One flask was used as the blank without additives. One set was added 0.025-0.15 μM retinoic acid as the control; the other two sets were added 4 μM of uroerythrin or vitamin B2. NBT test was conducted as described in Example 4 after incubation for 96 hours. The values thus obtained were subtracted with the value obtained by the blank without additives.

[1] = test system: HBL-100 breast cancer cells; test: Inhibition of colony formation of HBL-100 breast cancer cells; format: cell-based, human
Description: The activity of cancer cell colony formation is determined by using HBL-100 breast cancer cells according to the method described in Example 4, which is expressed by the percentage of the activity of cancer cell colony formation in a control group in which none of the chemicals is added. A group in which thymidine is used alone, a group in which CDA-II is used alone, and a group in which thymidine and CDA-II are used together (1:1) were tested. […] The synergistic effect is remarkable.
The activity of cancer cell colony formation is determined by using HBL-100 breast cancer cells according to the method described in Example 4. Each culture flask contains 5 ml medium, which contains 3000 HBL-100 cells and different amounts of CDA-11, vitamin C or vitamin B17. After incubation at 37° C. for 5 days, the cells were stained with Giemsa, and numbers of colonies with more than 8 cells were counted under a microscope.
Another indication of the anticancer activity of CDA-II is the inhibition of colony formation of HBL-100 breast cancer cell. At the beginning, the breast cancer cells growing at the exponential phase were washed with HBS solution, then about 2 ml 0.05% trypsin-0.53 mM EDTA was added, and the solution was incubated at 37° C. for 10 minutes. Thereafter, the cell density was measured, then an aliquot was taken and diluted to 3×10^3 cells/ml. 0.5 ml of the diluted solution was added into 4.5 ml culture medium with or without CDA-II and incubated at 37° C. Five days later, the medium was discarded, and the cells were washed with isotonic saline, then methanol was added to fix cells for 15 minutes. The fixed cells were stained for 30 minutes with Giemsa staining solution diluted 20 fold. After the staining solution was discarded, the cells were washed with water and dried. The colony number above 8 cells was counted under a microscope to determine the anticancer activity of CDA-II (the result is shown in table 1).
The experiment was carried out according to FIG. 6. HBL-100 cells were cultured with different dosages of CDA-II, vitamin C and vitamin B17 alone, and with the combination of CDA-II and vitamin C, or the combination of CDA-II and vitamin B17.

[2] = retinoic acid combined with 4 μM helper inducer

SMILES: CC[n+]1c(-c2ccccc2)c2cc(N)ccc2c2ccc(N)cc21 [ethidium bromide]
- Concentration to reach 0.5 reductive index (HL-60 cells): 0.95 µM

SMILES: O=C(O)CNC(=O)c1ccccc1 [hippuric acid]
- Concentration to reach 0.5 reductive index (effective dose of differentiation inducer reduced to 50%) (HL-60 cells): 8 mM

SMILES: CCN(CC)CCNc1ccc(CO)c2sc3ccccc3c(=O)c12 [hycanthone]
- Concentration to reach 0.5 reductive index (HL-60 cells): 2 µM

SMILES: O=C(O)Cc1ccccc1 [phenylacetic acid]
- Concentration to reach 0.5 reductive index (effective dose of differentiation inducer reduced to 50%) (HL-60 cells): 4 mM

SMILES: CC1=C(/C=C/C(C)=C/C=C/C(C)=C/C(=O)O)C(C)(C)CCC1 [retinoic acid]
- Extent of differentiation (NBT+) (HL-60 cancer cells; differentiation inducer (0.025-0.15 μM retinoic acid) used alone): about 85%

SMILES: C=CC1=C(C)C(=O)N=C1C=c1[nH]c(=Cc2[nH]c(O)c(C)c2CCC(=O)O)c(CCC(=O)O)c1C [uroerythrin]
- Extent of differentiation (NBT+) (HL-60 cancer cells; [2]): 100%
- Concentration to reach 0.5 reductive index (HL-60 cells): 1.8 µM

SMILES: Cc1cc2nc3c(=O)[nH]c(=O)nc-3n(C[C@H](O)[C@H](O)[C@H](O)CO)c2cc1C [vitamin B2, riboflavin]
- Extent of differentiation (NBT+) (HL-60 cancer cells; [2]): 100%
- Concentration to reach 0.5 reductive index (HL-60 cells): 3.0 µM

SMILES: N#CC(O[C@@H]1O[C@H](CO[C@@H]2O[C@H](CO)[C@@H](O)[C@H](O)[C@H]2O)[C@@H](O)[C@H](O)[C@H]1O)c1ccccc1 (stereo partly shown) [vitamin B17]
- IC50, inhibition of the formation of colonies of HBL-100 human breast cancer cells ([1]; 5 days, FIG. 7): 130 µg/mL
- Colony formation of HBL-100 cells: inhibition percentage, administered alone ([1]; vitamin B17 0.05 mg/ml alone): 20%

SMILES: O=C1O[C@H]([C@@H](O)CO)C(O)=C1O [vitamin C]
- IC50 ([1]; Homo sapiens, HBL-100, 120 h, 5 days, FIG. 7, read-out: IC50, inhibition of the formation of colonies of HBL-100 human breast cancer cells): 530 µg/mL
- inhibition at 200 µg/mL ([1]; Homo sapiens, HBL-100, vitamin C 0.2 mg/ml alone, read-out: Colony formation of HBL-100 cells: inhibition percentage, administered alone): 12%
